# Measurements reported in PubChem BioAssay AID1259426 (Fisher Drug Discovery Resource Center, 2018).
# “And” between values parts separate entries of the source, which are not always exact repeats. Identical values can stand only once. The source made the active and inactive calls.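 Rule for the calls: active = EC50 under a set limit in control cells lacking the mosquito receptor, marking a fluorescence artifact; inactive = the rest.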
# Target: HEK293 Galpha15/GCaMP6s without NPYLR7, calcium fluorescence
# Assay: calcium response in NPYLR7-null HEK293 cells, dose response, counter-screen for mosquito NPYLR7 agonist project, cell-based, HEK293 lacking NPYLR7 (AID 1259426);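 note: potency for a rise in fluorescence over baseline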
row,EC50,Structure (SMILES)
1,> 20 µM (inactive),O=C1/C(=C/c2cc3ccccc3o2)Oc2cc(O)ccc21
2,> 20 µM (inactive),COc1ccc(OC)c(CCNc2nc3cnc(-c4ccc5c(c4)OCO5)cc3n2C)c1
3,> 20 µM (inactive),C(=Cc1ccccc1)C=NNc1ncnc2ccccc12
4,7.74 µM,CC(C(=O)O)N1C(=O)/C(=C/c2ccc(N(C)C)cc2)SC1=S (stereo unspecified)
5,1.15 µM,CCN(CC)c1ccc(/C=C2\SC(=S)N(CC(=O)O)C2=O)c(O)c1
6,14.7 µM,CCOc1cc2c(cc1C=C(C#N)C#N)OC(C)C2 (stereo unspecified)
7,> 20 µM (inactive),COc1ccc(-c2cccc(-c3ccc(NC(=O)c4oc5ccccc5c4C)cc3)n2)cc1
8,> 20 µM (inactive),CCn1c(=O)c2c(nc(/C=C/c3ccc(OC)c(OC)c3)n2C)n(CC)c1=O
9,> 20 µM (inactive),CCN1CCN(C(=O)c2ccc(Cn3ccsc3=NC(=O)c3ccc(OC)c(OC)c3)o2)CC1
10,7.94 µM,CCC(C)[n+]1c(C)cc(C=C2Sc3ccccc3N2C)cc1C (stereo unspecified)
11,1.4 µM,CSc1ccc(C2CC(c3cccs3)=Nc3ncnn32)cc1 (stereo unspecified)
12,> 20 µM (inactive),CCOc1cc(/C=C2\SC(=S)N(NC(=O)c3ccccc3O)C2=O)ccc1O
13,6.31 µM,O=c1cc(C(F)(F)F)c2ccc(O)cc2o1
14,> 20 µM (inactive),COCCn1c(C)cn2c3c(=O)n(Cc4ccc(Cl)cc4)c(=O)n(C)c3nc12
15,< 0.039 µM,CCOC(=O)c1ccccc1-c1c2ccc(=N)cc-2oc2cc(N)ccc12
16,> 20 µM (inactive),COc1ccccc1CCNC(=O)c1ccc(Cn2c(C)nc3ccccc32)o1
17,> 20 µM (inactive),CCCc1ccccc1N1C(=O)CSC1c1ccc(NC(=O)CCl)cc1 (stereo unspecified)
18,17.6 µM,CCN1C(=Cc2cc(C)[n+](CCOC)c(C)c2)Sc2ccccc21
19,< 0.039 µM,O=C1OC(c2ccc(Cl)c([N+](=O)[O-])c2)=N/C1=C\c1cc2cc3c4c(c2oc1=O)CCCN4CCC3
20,12 µM,CC(C)C(C(=O)O)N1C(=O)/C(=C/c2ccc(N(C)C)cc2)SC1=S (stereo unspecified)

# The next lines start with the molecule.
row,Structure (SMILES),EC50
1,COc1cc(/C=C2\SC(=S)N(c3cccc(C(=O)O)c3)C2=O)ccc1O,> 20 µM (inactive)
2,C[C@H]1O[C@H](O[C@@H]2[C@@H](O[C@H]3CC[C@@]4(C)C(CC[C@]5(C)C4CC=C4[C@@H]6CC(C)(C)CC[C@]6(C(=O)O)CC[C@]45C)[C@]3(C)CO)OC[C@@H](O)[C@H]2O)[C@@H](O)[C@H](O)[C@@H]1O (stereo partly specified),9.92 µM
3,Cc1ccc(C)c(C2C(C#N)C(=N)SC(=N)C2C#N)c1 (stereo unspecified),11.9 µM
4,NS(=O)(=O)c1ccc(NC(NC(=O)c2ccco2)C(=O)c2ccc(Cl)cc2)cc1 (stereo unspecified),> 20 µM (inactive)
5,COc1cc(C=C(C#N)S(=O)(=O)c2ccc(Cl)cc2)cc(Cl)c1O,> 20 µM (inactive)
6,COc1ccc(C(C)NS(=O)(=O)c2ccc(Cl)cc2C(F)(F)F)cc1F (stereo unspecified),15.3 µM
7,COc1ccc(CN2CCN(Cc3cccn3-c3ncccn3)CC2CCO)c(C)c1C (stereo unspecified),> 20 µM (inactive)
8,CCCCN(C)C1=CC2=CC(=C(C#N)C#N)CCC2CC1 (stereo unspecified),< 0.039 µM
9,O=C1OC2(c3cc(Br)c(O)cc3Oc3c2cc(Br)c(O)[c]3[Hg])c2ccccc21 (stereo unspecified),< 0.039 µM
10,O=c1[nH]c(CCl)nc2sc3c(c12)CCN(Cc1ccccc1)C3,> 20 µM (inactive)
11,CCCC1CCC(C(=O)Nc2nnc(SCC)s2)CC1 (stereo unspecified),> 20 µM (inactive)
12,COc1cc(/C=C2\C(=N)N3N=CSC3=NC2=O)cc(Br)c1OC(=O)c1ccco1,10 µM
13,CCN1CCN(c2ccc(C(=O)C=Cc3ccc(O)c(OC)c3)cc2F)CC1,11.2 µM
14,CCN1CCN(C2=CC3=CC(=C(C#N)C#N)CCC3CC2)CC1 (stereo unspecified),< 0.039 µM
15,O=C(O)c1csc(CSc2nnc(Cc3ccccc3)n2-c2cccc(C(F)(F)F)c2)n1,> 20 µM (inactive)
16,COc1cccc(CN2C(=O)c3cccc(N)c3C2=O)c1,> 20 µM (inactive)

row,Structure (SMILES),EC50
1,Cc1ccccc1CNc1ncnc2c1ncn2C1OC(CO)C(O)C1O (stereo unspecified),6.77 µM
2,COc1ccc2c(c1)OCC(C=C(C#N)S(=O)(=O)c1ccc(Br)cc1)=C2,> 20 µM (inactive)
3,CCOC(=O)c1nc2ccccc2nc1N1CCN(C(=O)N2CCOCC2)CC1,> 20 µM (inactive)
4,CSc1nc(N)c2ncn([C@@H]3O[C@H](COP(=O)(O)OP(=O)(O)OP(=O)(O)O)[C@H](O)C3O)c2n1 (stereo partly specified),0.401 µM
5,CCN(CC)CCCC(C)Nc1c2ccc(Cl)cc2nc2ccc(OC)cc12 (stereo unspecified),4.89 µM and 1.41 µM
6,CCN1CCc2c(sc(NC(=O)COc3ccccc3)c2-c2nc3ccccc3s2)C1,> 20 µM (inactive)
7,Cc1cc(C)c2cc3c(cc2n1)CCN3CC(O)CO (stereo unspecified),2.78 µM
8,COc1ccc(Cl)cc1Nc1nnc(-c2cc3c(ccc4ccccc43)oc2=O)s1,> 20 µM (inactive)
9,Nc1c(S(=O)(=O)O)cc2c3c(cccc13)C(=O)N(CCO)C2=O,0.154 µM
10,COc1ccc(S(=O)(=O)NCC2CCCN(C(=O)CSc3ccccc3)C2)cc1 (stereo unspecified),> 20 µM (inactive)
11,COCCOc1ccc(NS(=O)(=O)c2cn(C)c(Cl)n2)cn1,7.28 µM
12,Cc1nc(=O)c(-c2ccccc2)c(C)n1-c1ccccc1O,> 20 µM (inactive)
13,CCC(C)[n+]1c(C)cc(C=C2Sc3ccccc3N2CC)cc1C (stereo unspecified),3.73 µM
14,CCOc1cccc(C=C2Oc3cc(O)ccc3C2=O)c1OC,> 20 µM (inactive)
15,CCC(CO)[n+]1c(C)cc(C=C2Sc3ccccc3N2CC)cc1C (stereo unspecified),1.86 µM
